Entries after “also recorded” stand apart in the source; their conditions may differ. Like-named read-outs stand apart in the source and are kept apart here. Marks after values point to notes of the source that are not given here.
What was measured:
[1] = target: T1, TauA (Escherichia coli, UniProt Q47537); test: Isothermal titration calorimetry, ligand binding to wild-type TauA; design: species or system E. coli
T1 construct: His tag with TEV site (pEHisTEV vector) (cleaved yes); made in house; host or cells: E. coli BL21 (DE3)
T1 sequence (Q47537 23-320): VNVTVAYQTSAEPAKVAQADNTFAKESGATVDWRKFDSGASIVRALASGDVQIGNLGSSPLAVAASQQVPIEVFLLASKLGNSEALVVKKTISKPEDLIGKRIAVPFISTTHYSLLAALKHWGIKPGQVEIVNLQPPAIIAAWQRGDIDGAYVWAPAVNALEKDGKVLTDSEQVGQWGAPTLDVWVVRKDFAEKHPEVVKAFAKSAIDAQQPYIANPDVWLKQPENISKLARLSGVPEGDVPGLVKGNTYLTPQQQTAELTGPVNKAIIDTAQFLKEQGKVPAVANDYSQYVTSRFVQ
Protocol: The gene encoding for the mature TauA from E. coli (accession number: K12-Q47537) was cloned into the pEHisTEV vector. BL21 (DE3) cells transformed with pEHisTEVtauA plasmid were grown at 310 K. Isopropyl β-D-1-thiogalactopyranoside was added to a final concentration of 0.5 mM when the culture reached an OD600 of 0.6, and the growth continued at 298 K for 18 h. Cells were harvested by centrifugation (6000×g) and resuspended in PBS supplemented with 20 mM imidazole and 3 mM MgCl2. Cells were lysed by sonication (10 cycles; 10 s per cycle with 10 s interval on ice) followed by centrifugation at 30 000 g for 1 h. The supernatant was subjected to Ni-NTA affinity chromatography followed by overnight dialysis with TEV protease and size exclusion chromatography using a Superdex S-200 column equilibrated with 20 mM Tris (pH 7.5) and 150 mM NaCl. […] SDS–PAGE indicated high purity.
(§1) Binding of ligands to TauA and mutants was measured at 298 K using ITC (MicroCal iTC200 microcalorimeter, Malvern Instruments). The protein buffer was in 20 mM Tris (pH 7.5) and 150 mM NaCl (ITC buffer). Protein and ligands were diluted to desired concentrations using ITC buffer. The pH of protein and ligand was adjusted at 277 K. An amount of 200 µl of protein and 60 µl of ligand was added into the sample cell and injection syringe, respectively. Seventeen 2.4 µl injections were performed with a pre-injection of 0.5 µl, a 180 s interval and an injection speed of 0.5 µl/s. Control experiments were performed where ligand was injected into ITC buffer. The heat of interaction was obtained by subtracting control measurements (heat of dilution) from the experimental measurements. The baseline was generated and the concentration-normalized binding isotherm was integrated using the MicroCal Origin software (version 7). The first injection peak was deleted from the isotherm. The isotherm was fitted to a single-site binding model. Values of binding constant (Ka, M^−1), enthalpy change (ΔH, J/mol) and binding stoichiometry (n) were allowed to vary (unless mentioned specifically) during the fitting procedure. The dissociation constant (Kd, M) and entropy change (ΔS, J/mol/K) were derived from Ka, ΔH and n accordingly. The Kd value is derived from the absolute value of Ka (Kd = 1/Ka).

[2] = target: TauA Asp205Ala (Escherichia coli, UniProt Q47537, D205A); test: biochemical; type: binding, E. coli; details: Asp205Ala mutant
Sequence of TauA Asp205Ala (Q47537 23-320 D205A): as the sequence (Q47537 23-320) above, with D183A counted along it
Protocol: (§2) Alanine-substituted TauA mutants (Gln30Ala, Glu106Ala, Thr132Ala and Asp205Ala) were generated by PCR using the QuikChange Lightning Site-Directed Mutagenesis Kit (Agilent Technologies). Mutations were confirmed by DNA sequencing. Mutants were expressed and purified as for the wild-type TauA.
as §1

[3] = target: TauA Thr132Ala (Escherichia coli, UniProt Q47537, T132A); test: biochemical; type: binding, E. coli; details: Thr132Ala mutant
Sequence of TauA Thr132Ala (Q47537 23-320 T132A): as the sequence (Q47537 23-320) above, with T110A counted along it
Protocol: as §2, §1

[4] = target: TauA Gln30Ala (Escherichia coli, UniProt Q47537, Q30A); test: biochemical; type: binding, E. coli; details: ITC, Gln30Ala mutant
Sequence of TauA Gln30Ala (Q47537 23-320 Q30A): as the sequence (Q47537 23-320) above, with Q8A counted along it
Protocol: as §2, §1

[5] = target: TauA Glu106Ala (Escherichia coli, UniProt Q47537, E106A); type: binding, E. coli; details: ITC, Glu106Ala mutant
Sequence of TauA Glu106Ala (Q47537 23-320 E106A): as the sequence (Q47537 23-320) above, with E84A counted along it
Protocol: as §2
as §1, with “Values of binding constant (Ka, M^−1), enthalpy change (ΔH, J/mol) and binding stoichiometry (n) were allowed to vary (unless mentioned specifically) during the fitting procedure. The dissociation constant (Kd, M) and entropy change (ΔS, J/mol/K) were derived from Ka, ΔH and n accordingly. The Kd value is derived from the absolute value of Ka (Kd = 1/Ka).” left out

[6] = stoichiometry fixed to 0.8 during data fitting
[7] = ITC, 298 K, 20 mM Tris pH 7.5, 150 mM NaCl, read-out: Kd
[8] = ITC, read-out: Kd (apparent affinity)

## NCCP(=O)(O)O [2-AEP, 2-Aminoethylphosphonic acid]
[1]; ITC
  heat of binding to TauA (exothermic/endothermic): endothermic
[1]; ITC, 298 K
  ΔH: 0.016 (±0.03%) kJ/mol
  ΔS: 2.33 J/mol/K
[1]; Kd (apparent affinity), ITC
  Kd: 649 µM
[1]; Kd, ITC, 298 K, 20 mM Tris pH 7.5, 150 mM NaCl
  Kd: 649 µM
[1]; [6]
  Stoichiometry: 0.8 ^*

## NC(=O)CNCCS(=O)(=O)O [ACES, N-(2-acetamido)-2-aminoethanesulfonic acid]
[1]; ITC
  heat of binding to TauA (exothermic/endothermic): exothermic
[1]; ITC, 298 K
  ΔH: −1.44 (±3.3%) kJ/mol
  ΔS: 1.87 J/mol/K
[1]; [7]
  Kd: 7.46 µM
[1]; ITC, fitted n
  Stoichiometry: 0.79(±2.4%)
[1]; [8]
  Kd: 7.4 µM

## O=S(=O)(O)CCN1CCOCC1 [MES, 2-(N-morpholino)ethanesulfonate]
[1]; ITC
  heat of binding to TauA (exothermic/endothermic): endothermic
[1]; ITC, 298 K
  ΔH: 4.74 (±0.8%) kJ/mol
  ΔS: 2.45 J/mol/K
[1]; [7]
  Kd: 2.85 µM
[1]; ITC, fitted n
  Stoichiometry: 0.868(±0.5%)
[1]; [8]
  Kd: 2.8 µM

## NCCS(=O)(=O)O [taurine, 2-aminoethanesulfonic acid]
[1]; ITC
  heat of binding to TauA (exothermic/endothermic): exothermic
[1]; ITC, 298 K
  ΔH: −61.04 (±0.08%) kJ/mol
[1]; [7]
  Kd: 0.0016 µM
[1]; ITC, fitted n
  Stoichiometry: 0.768(±0.38%)
[2]; [6]
  Stoichiometry: 0.8 ^*
[2]; ITC
  ΔH: −34.83 (±2%) kJ/mol
  ΔS: −2.34 J/mol/K
[2]; Kd, ITC, 298 K
  Kd: 22.9 µM
[2]; affinity, ITC
  Kd: 22.9 µM
[3]; ITC
  ΔH: −28.76 (±8%) kJ/mol
  ΔS: −0.54 J/mol/K
[3]; Kd, ITC, 298 K
  Kd: 20.6 µM
[3]; [6]
  Stoichiometry: 0.8 ^*
[3]; affinity, ITC
  Kd: 20.6 µM
[4]
  ΔH: −17.87 (±8%) kJ/mol
  ΔS: 3.72 J/mol/K
[4]; fitted n
  Stoichiometry: 0.83(±6%)
[4]; Kd, 298 K
  Kd: 3.48 µM
[4]; affinity
  Kd: 3.5 µM
[5]
  taurine binding affinity: detrimental to taurine binding; also recorded: No binding affinity could be measured

— article PMC6906117, “Desolvation of the substrate-binding protein TauA dictates ligand specificity for the alkanesulfonate ABC importer TauABC” (Biochemical Journal, 2019)
